Source: US20040224981A1, “Antibacterial methods and compositions” (priority 2003, published 2004)
Read-outs that look alike come from different tables or passages of the source.

What was measured:
S. aureus = assay: MIC against S. aureus strains and clinical isolates (broth microdilution); format: cell-based, Staphylococcus aureus; conditions: for MIC50: read-out: MIC50
How it was run: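 Broth microdilution per NCCLS in cation-supplemented Mueller-Hinton broth, final inoculum 5×10^5 CFU/ml from 0.5 McFarland suspensions diluted 1:10. Trays incubated aerobically overnight with quality control strains each run. Checkerboard FIC index: ≦0.5 synergy, >0.5 to 4 additive/indifferent, >4.0 antagonism.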

[1] = test system: MRS-resistant mutants of S. aureus; assay: Susceptibility (MIC) of MRS-resistant mutants of S. aureus; format: cell-based; conditions: Staphylococcus aureus
Protocol: MRS-resistant mutants generated in vitro in either serial passage or spontaneous resistance development studies were evaluated for susceptibility to mupirocin alone and in a 1:1 combination with MRSi compound 5.

C/C(=C\C(=O)OCCCCCCCCC(=O)O)C[C@@H]1OC[C@H](C[C@@H]2O[C@H]2[C@@H](C)[C@H](C)O)[C@@H](O)[C@H]1O [Mupirocin, Pseudomonic acid A] was tested, and the MIC (S. aureus; Staphylococcus aureus, NRS 24 / VISA, VISA, S. aureus NRS24 (HIP09143), read-out: MIC) was 8 µg/mL, the MIC (S. aureus; Staphylococcus aureus, NRS 49 / VISA, VISA, S. aureus NRS49 (Korea), read-out: MIC) was 0.03 µg/mL and the MIC (S. aureus; Staphylococcus aureus, NRS54, Table 6, high-level mupirocin-resistant S. aureus NRS54, read-out: MIC) was > 256 µg/mL. For the same molecule, the MIC (S. aureus; Staphylococcus aureus, NRS 54 / VISA, VISA, S. aureus NRS54 (Brazil), read-out: MIC) was > 8 µg/mL, the MIC (S. aureus; Staphylococcus aureus, NRS 56 / VISA, VISA, S. aureus NRS56 (Brazil), read-out: MIC) was 0.12 µg/mL and the MIC (S. aureus; Staphylococcus aureus, NRS107, S. aureus NRS107 (HL Mup rest.), read-out: MIC) was > 64 µg/mL. For the same molecule, the MIC (S. aureus; Staphylococcus aureus, NRS107, Table 2, S. aureus NRS107 (mupA), read-out: MIC) was > 8 µg/mL, the MIC (S. aureus; Staphylococcus aureus, NRS107, Table 3, S. aureus NRS107 (mupA), read-out: MIC) was > 8 µg/mL and the MIC (S. aureus; Staphylococcus aureus, NRS107, Table 4, S. aureus NRS107 (mupA), read-out: MIC) was > 8 µg/mL. The MIC (S. aureus; Staphylococcus aureus, NRS107, Table 6, high-level mupirocin-resistant S. aureus NRS107, read-out: MIC) was > 256 µg/mL, the MIC (S. aureus; Staphylococcus aureus, NRS127, Table 6, low-level mupirocin-resistant S. aureus NRS127, read-out: MIC) was 32 µg/mL and the MIC (S. aureus; Staphylococcus aureus, S. aureus 10-420 (LL Mup. Rest.), read-out: MIC) was > 64 µg/mL. The MIC (S. aureus; Staphylococcus aureus, S. aureus 14-354 (LL Mup. Rest.), read-out: MIC) was 64 µg/mL, the MIC (S. aureus; Staphylococcus aureus, S. aureus 25-670 (HL Mup. Rest.), read-out: MIC) was > 64 µg/mL and the MIC (S. aureus; Staphylococcus aureus, S. aureus 31-1334 (LL Mup Rest.), read-out: MIC) was 32 µg/mL. For the same molecule, the MIC (S. aureus; Staphylococcus aureus, S. aureus 36-1298 (LL Mup. Rest.), read-out: MIC) was 32 µg/mL, the MIC (S. aureus; Staphylococcus aureus, S. aureus 87-2797 (HL Mup. Rest.), read-out: MIC) was > 64 µg/mL and the MIC (S. aureus; Staphylococcus aureus, S. aureus 87-2797 (Mup. Susc.), read-out: MIC) was 0.25 µg/mL. The MIC (S. aureus; Staphylococcus aureus, S. aureus 101-100 (Mup. Susc.), read-out: MIC) was < 0.06 µg/mL, the MIC (S. aureus; Staphylococcus aureus, S. aureus LZ1 (HL Mup rest.), read-out: MIC) was > 64 µg/mL and the MIC (S. aureus; Staphylococcus aureus, S. aureus LZ6 (HL Mup rest.), read-out: MIC) was > 64 µg/mL. It also gave an MIC (S. aureus; Staphylococcus aureus, S. aureus LZ8 (LL Mup. Rest.), read-out: MIC) of 32 µg/mL, an MIC (S. aureus; Staphylococcus aureus, S. aureus LZ9, read-out: MIC) of 0.25 µg/mL and an MIC (S. aureus; Staphylococcus aureus, S. aureus LZ10, read-out: MIC) of 0.25 µg/mL. For the same molecule, the MIC (S. aureus; Staphylococcus aureus, S. aureus Miles Hall, read-out: MIC) was 64 µg/mL, the MIC (S. aureus; Staphylococcus aureus, S. aureus Oxford, read-out: MIC) was 0.12 µg/mL and the MIC (S. aureus; Staphylococcus aureus, Table 6, S. aureus (mupirocin-susceptible) 010-100, read-out: MIC) was 0.06 µg/mL. It also gave an MIC (S. aureus; Staphylococcus aureus, Table 6, S. aureus (mupirocin-susceptible) 087-2789, read-out: MIC) of 0.12 µg/mL, an MIC (S. aureus; Staphylococcus aureus, Table 6, S. aureus (mupirocin-susceptible) LZ9, read-out: MIC) of 0.12 µg/mL and an MIC (S. aureus; Staphylococcus aureus, Table 6, S. aureus (mupirocin-susceptible) LZ10, read-out: MIC) of 0.12 µg/mL. For the same molecule, the MIC (S. aureus; Staphylococcus aureus, Table 6, high-level mupirocin-resistant S. aureus 010-420, read-out: MIC) was > 256 µg/mL, the MIC (S. aureus; Staphylococcus aureus, Table 6, high-level mupirocin-resistant S. aureus 25-670, read-out: MIC) was > 256 µg/mL and the MIC (S. aureus; Staphylococcus aureus, Table 6, high-level mupirocin-resistant S. aureus 87-2797, read-out: MIC) was > 256 µg/mL. The MIC (S. aureus; Staphylococcus aureus, Table 6, high-level mupirocin-resistant S. aureus 1079101, read-out: MIC) was > 256 µg/mL, the MIC (S. aureus; Staphylococcus aureus, Table 6, high-level mupirocin-resistant S. aureus LZ1, read-out: MIC) was > 256 µg/mL and the MIC (S. aureus; Staphylococcus aureus, Table 6, high-level mupirocin-resistant S. aureus LZ6, read-out: MIC) was > 256 µg/mL. It also gave an MIC (S. aureus; Staphylococcus aureus, Table 6, low-level mupirocin-resistant S. aureus 014-354, read-out: MIC) of 16 µg/mL, an MIC (S. aureus; Staphylococcus aureus, Table 6, low-level mupirocin-resistant S. aureus 031-1334, read-out: MIC) of 16 µg/mL and an MIC (S. aureus; Staphylococcus aureus, Table 6, low-level mupirocin-resistant S. aureus 036-1298, read-out: MIC) of 16 µg/mL. It also gave an MIC (S. aureus; Staphylococcus aureus, Table 6, low-level mupirocin-resistant S. aureus 1081148, read-out: MIC) of 16 µg/mL, an MIC (S. aureus; Staphylococcus aureus, Table 6, low-level mupirocin-resistant S. aureus LZ8, read-out: MIC) of 16 µg/mL and an MIC (S. aureus; Staphylococcus aureus, Table 6, low-level mupirocin-resistant S. aureus Miles Hall, read-out: MIC) of 32 µg/mL. For the same molecule, the MIC (S. aureus; Staphylococcus aureus, VISA, three of the VISA isolates (poor activity), read-out: MICs) was > 8 µg/mL, the MIC50 (S. aureus; Staphylococcus aureus, all S. aureus isolates of Table 6) was 32 µg/mL and the MIC90 (S. aureus; Staphylococcus aureus, all S. aureus isolates of Table 6, read-out: MIC90) was > 256 µg/mL. For the same molecule, the MIC90 (S. aureus; Staphylococcus aureus, all S. aureus strains of Table 1, read-out: MIC 90) was > 64 µg/mL, the MIC50 (S. aureus; Staphylococcus aureus, oxacillin-resistant S. aureus, Oxa-R (42)) was 0.12 µg/mL and the MIC90 (S. aureus; Staphylococcus aureus, oxacillin-resistant S. aureus, Oxa-R (42), read-out: MIC90) was > 8 µg/mL. For the same molecule, the MIC (S. aureus; Staphylococcus aureus, oxacillin-resistant S. aureus, Oxa-R (42), read-out: MIC Mode) was 0.12 µg/mL, the MIC50 (S. aureus; Staphylococcus aureus, oxacillin-susceptible S. aureus, Oxa-S (20)) was 0.12 µg/mL and the MIC90 (S. aureus; Staphylococcus aureus, oxacillin-susceptible S. aureus, Oxa-S (20), read-out: MIC90) was > 8 µg/mL. The MIC (S. aureus; Staphylococcus aureus, oxacillin-susceptible S. aureus, Oxa-S (20), read-out: MIC Mode) was 0.12 µg/mL, the MIC50 (S. aureus; Staphylococcus aureus, recent clinical isolates of S. aureus, All (62)) was 0.12 µg/mL and the MIC90 (S. aureus; Staphylococcus aureus, recent clinical isolates of S. aureus, All (62), read-out: MIC90) was > 8 µg/mL. The MIC (S. aureus; Staphylococcus aureus, recent clinical isolates of S. aureus, All (62), read-out: MIC Mode) was 0.12 µg/mL, the MIC (S. aureus; Table 12, S. aureus 25-670, high level mupirocin-resistant, agent alone) was >128 8 g/mL and the MIC ([1]; ATCC29213, S. aureus ATCC 29213, metS wild-type) was 0.12 µg/mL. For the same molecule, the MIC ([1]; S. aureus SP-9B5, metS I57N, V296F) was 0.5 µg/mL, the MIC ([1]; S. aureus SP-21A, metS A77V) was 1 µg/mL and the MIC ([1]; read-out: MICs ranging, all the MRS-resistant mutants) was 0.12 to 1 µg/mL.
